From the NIST ThermoML archive (doi:10.1021/acs.jced.7b00452)
± gives the expanded uncertainty stated by the source.

How the values were obtained:
[1] = mn = molality of the nth substance listed, in mol/kg; details: 101.3 kPa, Liquid; for speed of sound: Single path-length method; for mass density: Vibrating tube method
[2] = 318.15 K; 101.3 kPa; Liquid; Single path-length method

SMILES | speed of sound ([1]; 298.15 K, m1 = 0.025) [m/s] | speed of sound ([1]; 298.15 K, m1 = 0.05) [m/s] | mass density ([1]; 298.15 K, m1 = 0.025) [kg/m3] | mass density ([1]; 298.15 K, m1 = 0.05) [kg/m3] | speed of sound ([1]; 308.15 K, m1 = 0.025) [m/s] | speed of sound ([1]; 308.15 K, m1 = 0.05) [m/s] | mass density ([1]; 308.15 K, m1 = 0.025) [kg/m3] | mass density ([1]; 308.15 K, m1 = 0.05) [kg/m3] | speed of sound ([1]; 318.15 K, m1 = 0.025) [m/s] | speed of sound ([1]; 318.15 K, m1 = 0.05) [m/s] | mass density ([1]; 318.15 K, m1 = 0.025) [kg/m3] | mass density ([1]; 318.15 K, m1 = 0.05) [kg/m3] | speed of sound [2] [m/s] | speed of sound ([1]; 318.15 K, m2 = 0) [m/s]
C[C@H](N)C(=O)O [(S)-2-aminopropanoic acid] + O | 1498.8 ± 1 | 1500 ± 1 | 997.765 ± 0.1 | 998.484 ± 0.1 | 1521.6 ± 1 | 1522.7 ± 1 | 994.741 ± 0.1 | 995.466 ± 0.1 | 1538 ± 1 | 1539.2 ± 1 | 990.91 ± 0.11 | 991.637 ± 0.11 | – | –
CC(C)[C@H](N)C(=O)O [L-valine] + O | 1498.9 ± 1 | 1501.7 ± 1 | 997.706 ± 0.1 | 998.248 ± 0.1 | 1521.7 ± 1 | 1524.2 ± 1 | 994.661 ± 0.1 | 995 ± 0.1 | 1537.7 ± 1 | 1540.2 ± 1 | 990.798 ± 0.1 | 991.103 ± 0.1 | – | –
O [water] | – | – | – | – | – | – | – | – | – | – | – | – | 1536.7 ± 1 | –
O [water] + CCN(CC)CCNC(=O)c1ccc(N)cc1.Cl | – | – | – | – | – | – | – | – | – | – | – | – | – | 1536.7 ± 1
